Results on eight molecules are retold here after ChEMBL document CHEMBL2417394, “Exquisite selectivity for human toll-like receptor 8 in substituted furo[2,3-c]quinolines” (J Med Chem, 2013).

Active and inactive are the calls of the source. The rule behind the calls is not given here.

Test [1] deals with T1, Toll-like receptor 8 (Homo sapiens) (UniProt Q9NR97).
T1 sequence (whole entry): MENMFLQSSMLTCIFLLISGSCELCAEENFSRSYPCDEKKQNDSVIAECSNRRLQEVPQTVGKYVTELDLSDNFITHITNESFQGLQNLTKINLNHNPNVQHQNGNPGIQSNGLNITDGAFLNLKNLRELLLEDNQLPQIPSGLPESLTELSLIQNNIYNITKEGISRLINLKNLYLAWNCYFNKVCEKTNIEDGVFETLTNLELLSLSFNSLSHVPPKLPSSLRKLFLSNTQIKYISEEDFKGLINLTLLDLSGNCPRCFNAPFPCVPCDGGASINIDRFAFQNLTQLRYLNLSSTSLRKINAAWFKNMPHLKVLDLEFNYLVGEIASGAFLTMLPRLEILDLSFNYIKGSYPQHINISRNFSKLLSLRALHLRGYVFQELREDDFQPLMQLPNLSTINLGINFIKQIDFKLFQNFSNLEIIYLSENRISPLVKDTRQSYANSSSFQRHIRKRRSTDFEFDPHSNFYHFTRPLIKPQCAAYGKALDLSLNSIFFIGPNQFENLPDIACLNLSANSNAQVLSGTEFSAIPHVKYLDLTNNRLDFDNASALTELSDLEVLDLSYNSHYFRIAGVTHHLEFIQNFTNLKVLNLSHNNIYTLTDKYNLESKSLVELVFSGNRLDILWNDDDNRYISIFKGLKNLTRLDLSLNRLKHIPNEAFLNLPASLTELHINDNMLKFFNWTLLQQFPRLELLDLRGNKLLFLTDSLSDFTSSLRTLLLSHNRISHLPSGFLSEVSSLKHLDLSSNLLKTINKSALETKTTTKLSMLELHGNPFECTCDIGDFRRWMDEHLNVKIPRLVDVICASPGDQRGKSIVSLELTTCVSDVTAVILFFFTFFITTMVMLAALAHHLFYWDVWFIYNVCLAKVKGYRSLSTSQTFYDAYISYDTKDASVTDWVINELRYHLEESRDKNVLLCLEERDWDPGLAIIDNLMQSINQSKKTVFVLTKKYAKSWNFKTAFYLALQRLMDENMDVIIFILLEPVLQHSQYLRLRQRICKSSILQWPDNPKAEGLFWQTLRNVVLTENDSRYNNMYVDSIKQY
Kind of test: Agonist activity at human TLR8 expressed in HEK293 cells co-transfected with MD2 and sAP assessed as induction of NF-kappaB activity by reporter gene assay. The format is cell-based.

In test [2] the target is T1, Toll-like receptor 8 (Homo sapiens). Put plainly: Modulation of human TLR8 expressed in HEK293 cells co-transfected with MD2 and sAP assessed as induction of NF-kappaB activity by reporter gene assay. The format is cell-based.
The target is the same in test [3]. Put plainly: Agonist activity at TLR8 in human PBMC assessed as increase of MIP1beta level after 12 hrs.
Test [4] shares this target. Put plainly: Agonist activity at TLR8 in human PBMC assessed as increase of MIP1alpha level after 12 hrs.
For test [5] the target is unchanged. Put plainly: Agonist activity at TLR8 in human PBMC assessed as increase of GRO level after 12 hrs.
The target is the same in test [6]. Put plainly: Agonist activity at TLR8 in human PBMC assessed as increase of G-CSF level after 12 hrs.
For test [7], the target named is T2, Nucleotide-binding oligomerization domain-containing protein 1 (Homo sapiens) (UniProt Q9Y239).
T2 sequence (whole entry): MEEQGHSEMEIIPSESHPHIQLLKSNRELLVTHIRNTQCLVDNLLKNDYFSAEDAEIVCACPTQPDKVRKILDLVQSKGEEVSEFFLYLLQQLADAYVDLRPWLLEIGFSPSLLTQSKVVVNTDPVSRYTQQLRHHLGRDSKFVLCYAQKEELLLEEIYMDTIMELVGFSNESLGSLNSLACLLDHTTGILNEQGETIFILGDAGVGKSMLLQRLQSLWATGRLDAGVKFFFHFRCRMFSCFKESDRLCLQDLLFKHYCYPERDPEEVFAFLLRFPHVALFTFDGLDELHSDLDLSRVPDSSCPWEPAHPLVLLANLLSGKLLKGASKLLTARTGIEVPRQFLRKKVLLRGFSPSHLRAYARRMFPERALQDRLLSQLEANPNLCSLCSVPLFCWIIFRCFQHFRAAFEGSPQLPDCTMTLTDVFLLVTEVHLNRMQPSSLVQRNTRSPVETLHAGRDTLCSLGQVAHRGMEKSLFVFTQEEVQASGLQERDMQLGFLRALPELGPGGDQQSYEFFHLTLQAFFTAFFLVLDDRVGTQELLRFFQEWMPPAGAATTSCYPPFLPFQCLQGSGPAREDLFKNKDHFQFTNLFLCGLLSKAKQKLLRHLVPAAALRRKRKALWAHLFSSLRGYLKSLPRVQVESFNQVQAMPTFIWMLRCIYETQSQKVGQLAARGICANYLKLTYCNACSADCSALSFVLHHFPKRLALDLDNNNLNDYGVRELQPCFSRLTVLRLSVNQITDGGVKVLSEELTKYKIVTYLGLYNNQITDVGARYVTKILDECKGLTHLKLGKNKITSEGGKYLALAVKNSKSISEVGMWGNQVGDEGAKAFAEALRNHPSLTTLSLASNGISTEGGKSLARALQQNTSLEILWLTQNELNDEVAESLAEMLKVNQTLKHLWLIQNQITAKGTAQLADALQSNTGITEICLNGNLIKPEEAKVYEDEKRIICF
Put plainly: Modulation of NOD1 (unknown origin).

For test [8], the target named is Nucleotide-binding oligomerization domain-containing protein 2 (Homo sapiens) (UniProt Q9HC29). Put plainly: Modulation of NOD2 (unknown origin).
Test [9] concerns the target T3, Toll-like receptor 9 (Homo sapiens) (UniProt Q9NR96).
T3 sequence (whole entry): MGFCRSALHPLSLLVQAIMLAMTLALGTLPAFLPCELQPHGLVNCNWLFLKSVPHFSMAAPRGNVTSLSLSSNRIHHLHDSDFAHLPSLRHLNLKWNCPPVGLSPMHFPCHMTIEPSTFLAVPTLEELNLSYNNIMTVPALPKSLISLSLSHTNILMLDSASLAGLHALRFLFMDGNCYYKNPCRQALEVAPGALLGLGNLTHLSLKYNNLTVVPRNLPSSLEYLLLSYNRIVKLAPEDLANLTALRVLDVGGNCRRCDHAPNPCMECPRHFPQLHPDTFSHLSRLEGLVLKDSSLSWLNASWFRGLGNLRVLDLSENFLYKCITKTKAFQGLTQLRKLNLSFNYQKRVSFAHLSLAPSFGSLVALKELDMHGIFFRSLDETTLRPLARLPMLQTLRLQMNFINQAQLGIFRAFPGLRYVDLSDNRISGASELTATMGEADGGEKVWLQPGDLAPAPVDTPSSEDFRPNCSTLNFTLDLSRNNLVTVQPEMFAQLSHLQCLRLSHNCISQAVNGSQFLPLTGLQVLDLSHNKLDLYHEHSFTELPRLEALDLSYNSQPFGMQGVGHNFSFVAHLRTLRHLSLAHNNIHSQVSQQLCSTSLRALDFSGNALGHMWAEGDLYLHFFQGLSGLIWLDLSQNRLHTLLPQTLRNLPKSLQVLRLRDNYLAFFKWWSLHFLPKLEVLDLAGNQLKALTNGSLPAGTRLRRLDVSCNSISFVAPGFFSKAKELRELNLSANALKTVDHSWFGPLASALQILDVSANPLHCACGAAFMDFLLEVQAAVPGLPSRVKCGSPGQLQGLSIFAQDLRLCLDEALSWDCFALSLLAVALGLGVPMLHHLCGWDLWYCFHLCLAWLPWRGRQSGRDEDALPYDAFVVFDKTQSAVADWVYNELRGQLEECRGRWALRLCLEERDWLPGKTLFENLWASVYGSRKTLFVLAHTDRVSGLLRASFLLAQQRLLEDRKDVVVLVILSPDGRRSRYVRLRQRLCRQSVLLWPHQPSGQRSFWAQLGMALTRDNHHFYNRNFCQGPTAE
Put plainly: Modulation of human TLR9 expressed in HEK293 cells co-transfected with MD2 and sAP assessed as induction of NF-kappaB activity by reporter gene assay. The test is classed as cell-based.

Chain of Nucleotide-binding oligomerization domain-containing protein 2 (Homo sapiens) (Q9HC29 whole entry, the tested form may be a part): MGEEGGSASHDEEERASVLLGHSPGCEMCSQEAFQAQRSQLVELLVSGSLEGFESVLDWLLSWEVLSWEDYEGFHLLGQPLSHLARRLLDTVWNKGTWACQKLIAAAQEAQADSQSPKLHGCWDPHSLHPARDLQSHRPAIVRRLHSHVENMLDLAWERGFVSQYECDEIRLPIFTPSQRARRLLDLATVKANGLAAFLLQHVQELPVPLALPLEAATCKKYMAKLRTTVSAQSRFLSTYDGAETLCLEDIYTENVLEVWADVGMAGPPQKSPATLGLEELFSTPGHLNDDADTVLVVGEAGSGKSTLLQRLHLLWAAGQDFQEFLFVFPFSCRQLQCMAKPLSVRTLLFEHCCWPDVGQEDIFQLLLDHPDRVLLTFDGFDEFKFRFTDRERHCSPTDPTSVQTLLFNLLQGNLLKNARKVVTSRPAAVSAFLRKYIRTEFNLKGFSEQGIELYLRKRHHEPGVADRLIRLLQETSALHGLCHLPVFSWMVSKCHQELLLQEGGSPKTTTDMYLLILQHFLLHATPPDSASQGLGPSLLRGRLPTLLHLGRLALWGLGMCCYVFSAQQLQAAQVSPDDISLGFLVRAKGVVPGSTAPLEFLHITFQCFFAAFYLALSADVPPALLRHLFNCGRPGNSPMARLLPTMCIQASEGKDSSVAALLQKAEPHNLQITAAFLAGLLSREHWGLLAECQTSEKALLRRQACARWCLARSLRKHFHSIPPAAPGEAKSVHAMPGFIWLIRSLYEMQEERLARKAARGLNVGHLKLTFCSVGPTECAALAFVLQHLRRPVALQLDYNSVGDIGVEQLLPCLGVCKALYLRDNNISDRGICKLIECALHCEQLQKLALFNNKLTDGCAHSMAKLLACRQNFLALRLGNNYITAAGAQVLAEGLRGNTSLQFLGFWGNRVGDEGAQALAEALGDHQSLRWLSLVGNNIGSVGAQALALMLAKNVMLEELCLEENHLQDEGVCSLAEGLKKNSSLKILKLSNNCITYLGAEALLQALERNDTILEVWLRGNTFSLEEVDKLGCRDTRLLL

Consider `CCCCCCc1cc2c(o1)c(N)nc1ccccc12`, for which the result in test [1] and in [2] was Active.
As to `CCCc1nc2c(N)nc3ccccc3c2s1`, the outcome in [3], in [4], in test [5] and in test [6] was Active.
Take `CCCCc1cc2c(o1)c(N)nc1ccccc12`: the outcome in test [7], in test [8] and in [9] was Active.
`CCCCCc1cc2c(o1)c(N)nc1ccccc12`: the result in [1] and in test [2] was Active.
With `Cc1cc2c(o1)c(N)nc1ccccc12`, the result in [1] and in test [2] was Active.
On to `CCCCc1nc2c(N)nc3ccccc3c2n1Cc1ccccc1`, for which the outcome in test [3], in [4], in test [5] and in test [6] was inactive.
Regarding `Nc1nc2ccccc2c2ccoc12`, the result in test [1] was inactive.
`CCCc1cc2c(o1)c(N)nc1ccccc12`: the outcome in test [1] and in test [2] was Active.
